Source: publication PMC3703636 (2013)

Key:
Assay in all cases: gel filtration, radiolabeled GTP
Settings in all cases: reduced relative to wild type
[1] = tested on: VEGF IRES mut (RNA, G4) UGAUGAGUGUGAGGAGGA
[2] = tested on: c-MYC transcriptional repressor mut (DNA, G4) GGGTAGGAAGGGTAGGA
[3] = tested on: NRAS translational repressor mut (RNA, G4) GGUAGGGUCGGUUCUGGU

Measured: binding

Nc1nc2c(ncn2[C@@H]2O[C@H](COP(=O)(O)OP(=O)(O)OP(=O)(O)O)[C@@H](O)[C@H]2O)c(=O)[nH]1
weak: [1] | [2] | [3]
